Measurements taken from publication PMC9855333, “1-(Arylsulfonyl-isoindol-2-yl)piperazines as 5-HT6R Antagonists: Mechanochemical Synthesis, In Vitro Pharmacological Properties and Glioprotective Activity” (Biomolecules, 2022).

Legend:
[1] = Cytotoxicity, MTT test, C8-D1A; assay type: cell-based; conditions: mouse, C8-D1A cells (mouse astrocytes)
Protocol: (§1) Hepatotoxicity, neurotoxicity, and glial cytotoxicity were investigated using the following cellular models: human hepatocellular carcinoma (HepG2), human neuroblastoma (SHSY-5Y), and mouse astrocytes (C8-D1A), all from ATCC (American Type Culture Collection, Manassas, VA, USA). Cells were cultured in appropriate culture media recommended by ATCC supplemented with 10% fetal bovine serum (FBS; Gibco, Life Technologies, Carlsbad, CA, USA) and 1% antibiotic mixture (Gibco, Life Technologies, Carlsbad, CA, USA). Cells were cultured at standard conditions (5% CO2, 95% humidity, 37 °C). For cytotoxicity experiments, cells were seeded into 96 well plates at an initial density of 2000 cells/well. After overnight incubation, cells were treated with 3e, 3f, and 3g in a concentration range of 0.78–50 µM for 48 h; then, an MTT assay was performed as described previously. Briefly, following cell exposure, 10 µL of MTT reagent was added to each well. After the next 4 h, the medium was aspirated, and formazan produced in cells appeared as dark crystals in the bottom of the wells. Next, 100 µL DMSO was added to each well. Then, the optical density of the solution (OD) at 570 nm was determined on a plate reader (Spectra Max iD3, Molecular Devices, San Jose, CA, USA). The experiments were run three times in triplicates.

human 5-HT1A receptor = molecular target: T1, human 5-HT1A receptor (Homo sapiens, UniProt P08908); experiment: Radioligand binding, [3H]-8-OH-DPAT displacement, HEK-293 cells; conditions: mean ± SEM, three independent binding experiments; read-out: Ki [nM] 5-HT1AR
T1 construct: expressed in transfected cells
T1 sequence (P08908 1-422): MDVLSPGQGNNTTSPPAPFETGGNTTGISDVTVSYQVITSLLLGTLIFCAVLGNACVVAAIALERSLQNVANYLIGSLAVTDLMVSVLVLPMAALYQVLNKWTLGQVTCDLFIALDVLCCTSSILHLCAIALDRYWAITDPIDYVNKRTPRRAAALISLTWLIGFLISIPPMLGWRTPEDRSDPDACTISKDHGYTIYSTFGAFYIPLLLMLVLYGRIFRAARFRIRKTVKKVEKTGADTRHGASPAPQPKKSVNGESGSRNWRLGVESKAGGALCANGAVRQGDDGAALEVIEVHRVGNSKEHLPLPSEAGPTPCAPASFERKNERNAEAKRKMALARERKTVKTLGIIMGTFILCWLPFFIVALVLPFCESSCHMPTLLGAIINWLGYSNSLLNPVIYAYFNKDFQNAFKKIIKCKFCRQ
Protocol: All experiments were performed in HEK-293 cells, which stably express the human 5-HT1A, 5-HT6, 5-HT7b, and D2L receptors, or using CHO-K1 cells expressing human serotonin 5-HT2A receptor, following the previously reported procedures. For displacement studies, the following radioligands (PerkinElmer, USA) at given concentrations were used at: 2.5 nM [^3H]-8-OH-DPAT (135.2 Ci/ mmol); 1 nM [^3H]-ketanserin (53.4 Ci/mmol); 2 nM [^3H]-LSD (83.6 Ci/mmol); 0.8 nM [^3H]-5-CT (39.2 Ci/mmol) or 2.5 nM [^3H]-raclopride (76.0 Ci/mmol) for 5-HT1A, 5-HT2A, 5-HT6, 5-HT7b and D2L receptors, respectively. All tested compounds were evaluated in triplicate at 7 concentrations (10^−10–10^−4 M). The inhibition constants (Ki) were calculated from the Cheng–Prusoff equation [25]. A detailed description is reported in the Supporting Information.
1. Procedure for radioligand binding assay
All experiments were carried out according to the previously published procedures. HEK293 cells stably expressing human 5-HT1A, 5-HT6, 5-HT7b and D2L receptors (prepared with the use of Lipofectamine 2000) or CHO-K1 cells with plasmid containing the sequence coding for the human serotonin 5-HT2A receptor (Perkin Elmer) were maintained at 37 °C in a humidified atmosphere containing 5% CO2 and grown in Dulbecco’s Modified Eagle’s Medium containing 10% dialyzed fetal bovine serum and 500 μg/ml G418 sulfate. For membrane preparation, cells were cultured in 150 cm2 flasks, grown to 90% confluence, washed twice with pre-warmed to 37 °C phosphate buffered saline (PBS) and centrifuged (200 × g) in PBS containing 0.1 mM EDTA and 1 mM dithiothreitol. Prior to membrane preparation, pellets were stored at –80 °C. […]
The process of equilibration was terminated by rapid filtration through Unifilter plates with a 96-well cell harvester and radioactivity retained on the filters was quantified on a Microbeta plate reader (PerkinElmer, USA). […] The inhibition constants (Ki) were calculated from the Cheng-Prusoff equation [4].

[2] = Cytotoxicity, MTT test, SH-SY5Y; assay type: cell-based; conditions: human, SH-SY5Y cells (human neuroblastoma)
Protocol: as §1

[3] = Cytotoxicity, MTT test, HepG2; assay type: cell-based; conditions: human, HepG2 cells (human hepatocellular carcinoma)
Protocol: as §1

[4] = Metabolic stability in rat liver microsomes (RLM); assay type: in vitro ADME; conditions: for microsomal CLint at 20 µM / half-life at 20 µM: male, rat, rat liver microsomes, pH 7.4, protein concentration 0.5 mg/mL; for half-life at 20 µM: read-out: Metabolic Stability t1/2; for Metabolic Stability Major Metabolite: protein concentration 0.5 mg/mL
Protocol: Metabolic stability studies were performed according to reported protocols. […] All samples were analyzed in duplicate.

SMILES | IC50 at 48 h [1] [µM] | Ki (human 5-HT1A receptor) [nM] | IC50 at 48 h [2] [µM] | IC50 at 48 h [3] [µM] | microsomal CLint at 20 µM [4] [µL/min/mg] | half-life at 20 µM [4] [h] | Metabolic Stability Major Metabolite [4]
O=S(=O)(c1cccc(N2CCNCC2)c1)N1Cc2ccccc2C1 [3e, 2-{[3-(Piperazin-1-yl)phenyl]sulfonyl}isoindoline] | > 50 | 951 ± 120 | 42 | > 50 | 3.78 | 6.12 | not detected
O=S(=O)(c1cccc(N2CCNCC2)c1)N1Cc2cccc(Br)c2C1 [3g, 4-Bromo-2-{[3-(piperazin-1-yl)phenyl]sulfonyl}isoindoline] | > 50 | 680 ± 33 | 48 | > 50 | 14.7 | 1.57 | hydroxylated
O=S(=O)(c1cccc(N2CCNCC2)c1)N1Cc2cccc(Cl)c2C1 [3f, 4-Chloro-2-{[3-(piperazin-1-yl)phenyl]sulfonyl}isoindoline] | > 50 | 385 ± 71 | 38 | > 50 | 18 | 1.28 | hydroxylated
